Results taken from US9790169B2, “IDO inhibitors” (BRISTOL-MYERS SQUIBB COMPANY, priority 2015, dated 2017).

Molecular target: human IDO1 (Homo sapiens, UniProt P14902)
Assay: Assessment of human IDO-1 inhibitory activity in HEK cells (human IDO1/HEK293 cells, kynurenine read-out with Ehrlich reagent, absorbance 490 nm)
Assay type: cell-based
Set-up: expressed in transfected cells
Conditions: HEK Human IDO-1 cellular assay
Outline: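 Kynurenine output from stably IDO1-transfected HEK293 cells (10,000/well, phenol red-free RPMI, 10% FBS) after 20 h compound exposure at 37 °C. The reaction was stopped with 0.2% TCA and heated 30 min at 50 °C, then the supernatant was mixed with Ehrlich reagent and read at 490 nm. IC50 was set against DMSO and a 500 nM reference standard as 0 and 100% inhibition.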

human IDO1, sequence (P14902 whole entry): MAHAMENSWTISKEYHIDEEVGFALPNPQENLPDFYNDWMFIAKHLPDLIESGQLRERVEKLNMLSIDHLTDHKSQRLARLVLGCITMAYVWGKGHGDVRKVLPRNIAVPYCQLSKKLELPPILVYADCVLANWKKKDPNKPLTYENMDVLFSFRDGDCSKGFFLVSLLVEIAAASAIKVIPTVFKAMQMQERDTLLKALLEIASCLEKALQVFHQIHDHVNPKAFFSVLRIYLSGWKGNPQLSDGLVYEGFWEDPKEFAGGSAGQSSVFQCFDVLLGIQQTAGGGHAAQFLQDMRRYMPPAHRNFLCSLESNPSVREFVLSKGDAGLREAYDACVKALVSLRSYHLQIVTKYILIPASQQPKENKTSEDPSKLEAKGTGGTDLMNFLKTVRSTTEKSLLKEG

Row | IC50 | Compound
1 | > 0.05 µM | CCOc1ccc(Nc2cc(C(CC)CC(=O)O)ccc2N2CCC[C@H]2C(C)(C)O)cc1 (single isomer, unassigned) [Example 833]
2 | > 0.05 µM | CCN(c1ccc([C@@H](COC)CC(=O)O)cc1NC(=O)Nc1ccc(OC)nc1)C1CCOCC1 (single isomer, unassigned) [Example 426]
3 | > 0.05 µM | CC[C@@H](CC(=O)O)c1ccc(N2CCOC[C@@H]2C(C)C)c(Nc2ccc3nc(C)sc3c2)c1 (single isomer, unassigned) [Example 80]
4 | < 0.005 µM | CCOc1ncc(Nc2cc(C(CC)CC(=O)O)ccc2N(CC2CC2)C2CCOCC2)cn1 (single isomer, unassigned) [Example 705, 3-(4-((cyclopropylmethyl) (tetrahydro-2H-pyran-4-yl)amino)-3-((2-ethoxypyrimidin-5-yl)amino)phenyl)pentanoic acid]
5 | < 0.05 µM | CCC(CC(=O)O)c1ccc(N2C[C@@H]3C[C@H]2CN3C(=O)OC(C)(C)C)c(Nc2ccc(C)cc2)c1 (single isomer, unassigned) [Example 447]
6 | < 0.005 µM | CCOc1ccc(NC(=O)Nc2cc(C(COC)CC(=O)O)cc(F)c2N(CC(C)C)C2CCCCC2)c(F)c1 (single isomer, unassigned) [Example 1157, 3-(4-(cyclohexyl(isobutyl)amino)-3-(3-(4-ethoxy-2-fluorophenyl)ureido)-5-fluorophenyl)-4-methoxybutanoic acid]
7 | < 0.05 µM | COCC(CC(=O)O)c1ccc(N(CC(C)C)C2CCCCC2)c(NC(=O)Nc2cc(C)on2)c1 (racemic) [Example 986, (+/−)-3-(4-(Cyclohexyl(isobutyl)amino)-3-(3-(5-methylisoxazol-3-yl)ureido)phenyl)-4-methoxybutanoic acid]
8 | > 0.05 µM | COCC(CC(=O)O)c1cc(F)c(N(CC(C)C)C2CCCCC2)c(NC(=O)Cc2cc(C)on2)c1 (single isomer, unassigned) [Example 1169, 3-(4-(cyclohexyl(isobutyl)amino)-3-fluoro-5-(2-(5-methylisoxazol-3-yl)acetamido)phenyl)-4-methoxybutanoic acid]
9 | > 0.05 µM | CCC(CC(=O)O)c1ccc(N2CCOC[C@H]2C(C)C)c(Nc2cnc(OCC3CC3)nc2)c1 (single isomer, unassigned) [Example 905]
10 | < 0.05 µM | CC(C)(CC(=O)O)c1ccc(N2CCC[C@H]2C(C)(C)O)c(Nc2ccc(Cl)cc2)c1 [Example 808, (S)-3-(3-((4-chlorophenyl)amino)-4-(2-(2-hydroxypropan-2-yl)pyrrolidin-1-yl)phenyl)-3-methylbutanoic acid]
11 | > 0.05 µM | CCN(c1ccc(C(CC(=O)O)c2ccccc2)cc1Nc1ccc(Cl)cc1F)C1CCOCC1 (single isomer, unassigned) [Example 592, 3-(3-((4-chloro-2-fluorophenyl)amino)-4-(ethyl(tetrahydro-2H-pyran-4-yl)amino)phenyl)-3-phenylpropanoic acid]
12 | > 0.05 µM | CCOc1ccc(NC(=O)Nc2cc(C(C)(C)CC(=O)O)ccc2N(CC)C2CCOCC2)cc1 [Example 166, 3-(3-(3-(4-Ethoxyphenyl)ureido)-4-(ethyl(tetrahydro-2H-pyran-4-yl)amino)phenyl)-3-methylbutanoic acid]
13 | < 0.05 µM | CC(CC(=O)O)c1ccc(N2C[C@@H](C)O[C@@H](C)C2)c(Nc2ccc(Cl)cc2)c1 (single isomer, unassigned) [Example 745]
14 | < 0.005 µM | CCN(c1ccc(C(C)CC(=O)O)cc1Nc1ccc(C#N)cc1)C1CCOCC1 (single isomer, unassigned) [Example 613, 3-(3-((4-cyanophenyl)amino)-4-(ethyl(tetrahydro-2H-pyran-4-yl)amino)phenyl) butanoic acid]
15 | < 0.005 µM | CC[C@H](CC(=O)O)c1ccc(N(CC)C2CCOCC2)c(Nc2ccc(OCC(F)(F)F)cc2)c1 (single isomer, unassigned) [Example 515]
16 | < 0.05 µM | CCC(CC(=O)O)c1ccc(N(CC2CC2)C2CCOCC2)c(NC(=O)Nc2ccc(C)cc2)c1 (stereo not drawn) [Example 698]
17 | < 0.05 µM | CCCN(c1ccc(C(CC)CC(=O)O)cc1Nc1ncc(CC)cn1)C1CCOCC1 (racemic) [Example 611, 3-(3-((5-Ethylpyrimidin-2-yl)amino)-4-(propyl(tetrahydro-2H-pyran-4-yl)amino)phenyl)pentanoic acid]
18 | < 0.005 µM | CCc1ccc(Nc2cc([C@@H](CC)CC(=O)O)ccc2N(CC)C2CCCCC2)cc1 (single isomer, unassigned) [Example 282]
19 | > 0.05 µM | CC(C)CN(CC(C)C)c1ccc(C(CC(=O)O)CN(C)C)cc1NC(=O)Nc1ccc(Cl)cc1F (racemic) [Example 1000, (+/−)-3-(3-(3-(4-Chloro-2-fluorophenyl)ureido)-4-(diisobutylamino)phenyl)-4-(dimethylamino)butanoic acid]
20 | < 0.005 µM | CCC(CC(=O)O)c1ccc(N(CC(C)C)C2CCCCC2)c(Nc2ccc(C#N)cc2)c1 (single isomer, unassigned) [Example 314, 3-(3-((4-cyanophenyl)amino)-4-(cyclohexyl (isobutyl)amino)phenyl) pentanoic acid]

Row | IC50 | Compound
21 | < 0.005 µM | CCC(CC(=O)O)c1cc(F)c(N(CC(C)C)CC(C)C)c(Nc2cnc(OC)nc2)c1 (single isomer, unassigned) [Example 104, 3-(4-(diisobutylamino)-3-fluoro-5-((2-methoxypyrimidin-5-yl)amino)phenyl) pentanoic acid]
22 | < 0.005 µM | CCN(c1ccc(C(CC(=O)O)C2CC2)cc1Nc1ccc(C#N)cc1)C1CCOCC1 (single isomer, unassigned) [Example 37, 3-(3-((4-cyanophenyl)amino)-4-(ethyl(tetrahydro-2H-pyran-4-yl)amino)phenyl)-3-cyclopropylpropanoic acid]
23 | < 0.005 µM | CCc1ccc(Nc2cc([C@@H](COC)CC(=O)O)ccc2N(CC)C2CCOCC2)cc1 (single isomer, unassigned) [Example 374]
24 | > 0.05 µM | CCN(c1ccc([C@@H](COC)CC(=O)O)cc1NC(=O)Nc1ccc(C)cc1)C1CCOCC1 (single isomer, unassigned) [Example 433]
25 | < 0.005 µM | CCC(CC(=O)O)c1ccc(N(CC(C)C)C2CCCCC2)c(Nc2ccc(Cl)c(OCC(F)F)c2)c1 (single isomer, unassigned) [Example 643, 3-(3-((4-chloro-3-(2,2-difluoroethoxy)phenyl)amino)-4-(cyclohexyl (isobutyl)amino)phenyl) pentanoic acid]
26 | > 0.05 µM | CCN(c1ccc([C@H](COC)CC(=O)O)cc1NC(=O)Nc1ccc(OC(F)F)cc1)C1CCOCC1 (single isomer, unassigned) [Example 436]
27 | > 0.05 µM | CCN(c1ccc([C@@H](COC)CC(=O)O)cc1NC(=O)Nc1cnc(C)nc1)C1CCOCC1 (single isomer, unassigned) [Example 427]
28 | > 0.05 µM | CC(C)CN(c1ccc(C(C)CC(=O)O)cc1Nc1nc2ccccc2o1)C1CCOCC1 (single isomer, unassigned) [Example 969, 3-(3-(Benzo[d]oxazol-2-ylamino)-4-(isobutyl(tetrahydro-2H-pyran-4-yl)amino)phenyl)butanoic acid]
29 | > 0.05 µM | CCC(CC(=O)O)c1ccc(N2CCC[C@@H]2COC)c(NC(=O)Cc2ccc(C)cc2)c1 (single isomer, unassigned) [Example 1144]
30 | < 0.005 µM | CCOc1ccc(NC(=O)Nc2cc(C(COC)CC(=O)O)cc(F)c2N(CC(C)C)C2CCCCC2)cc1 (single isomer, unassigned) [Example 1160, 3-(4-(cyclohexyl(isobutyl)amino)-3-(3-(4-ethoxyphenyl)ureido)-5-fluorophenyl)-4-methoxybutanoic acid]
31 | < 0.005 µM | CCc1ccc(Nc2cc(C(CC)CC(=O)O)ccc2N(CC(C)C)C2CCCCC2)cc1 (single isomer, unassigned) [Example 309, 3-(4-(cyclohexyl(isobutyl)amino)-3-((4-ethylphenyl)amino)phenyl)pentanoic acid]
32 | < 0.005 µM | CC[C@@H](CC(=O)O)c1ccc(N(CC)C2CCOCC2)c(Nc2ccc3nc(C)sc3c2)c1 (single isomer, unassigned) [Example 484]
33 | < 0.005 µM | CCC(CC(=O)O)c1cc(NC(=O)Nc2ccc(C)cc2)c(N(CC(C)C)C2CCCCC2)cc1F (single isomer, unassigned) [Example 1106, 3-(4-(Cyclohexyl(isobutyl)amino)-2-fluoro-5-(3-(p-tolyl)ureido)phenyl)pentanoic acid]
34 | > 0.05 µM | CCN(c1ccc(C(CC(=O)O)c2ccccc2)cc1NC(=O)Nc1ccc(C)cc1)C1CCOCC1 (single isomer, unassigned) [Example 584, 3-(4-(Ethyl(tetrahydro-2H-pyran-4-yl)amino)-3-(3-(p-tolyl)ureido)phenyl)-3-phenylpropanoic acid]
35 | < 0.005 µM | CCC(CC(=O)O)c1ccc(N(CC(C)C)CC(C)C)c(NC(=O)Cc2ccc(C#N)cc2)c1 (racemic) [Example 950, (+/−)-3-(3-(2-(4-Cyanophenyl)acetamido)-4-(diisobutylamino)phenyl)pentanoic acid]
36 | < 0.005 µM | CCN(c1ccc([C@@H](COC)CC(=O)O)cc1Nc1ccc(Cl)cc1)C1CCOCC1 (single isomer, unassigned) [Example 376]
37 | < 0.05 µM | CCN(c1ccc(C(C)(C)CC(=O)O)cc1NC(=O)Nc1ccc(C)cc1)C1CCC(C)(O)CC1 (stereo not drawn) [Example 5, 3-(4-(Ethyl(4-hydroxy-4-methylcyclohexyl)amino)-3-(3-(p-tolyl)ureido)phenyl)-3-methylbutanoic acid]
38 | > 0.05 µM | CCN(c1ccc(C(C)CC(=O)O)cc1NC(=O)Nc1ccccc1F)C1CCOCC1 (single isomer, unassigned) [Example 640, 3-(4-(ethyl(tetrahydro-2H-pyran-4-yl)amino)-3-(3-(2-fluorophenyl)ureido)phenyl) butanoic acid]
39 | < 0.005 µM | COCC(CC(=O)O)c1cc(F)c(N(CC(C)C)CC(C)C)c(NC(=O)Nc2ccc(C)cc2)c1 (single isomer, unassigned) [Example 1186, 3-(4-(Diisobutylamino)-3-fluoro-5-(3-(p-tolyl)ureido)phenyl)-4-methoxybutanoic acid]
